The IC50 is the point on the concentration scale where inhibition reaches its midpoint. As a reminder, the ED50 is the dose at which the effect has come halfway, by size or by number of responders. As usually defined, the Cmax is the maximum level reached in the sampled fluid or tissue. By Tmax is commonly meant the time from dosing to the highest level. For orientation: half-life means the time needed for the level to fall by half in the phase considered. Lower therefore signals fast loss. The inhibition in vivo is the percentage by which the read-out fell short of the control. The term logD denotes the decadic logarithm of the distribution of all forms, ionised or not, between an organic phase and buffer at a given pH. A low value points to a more hydrophilic compound. The term clearance denotes the volume of plasma or blood freed of the substance per unit of time. High values mean efficient removal, low ones inefficient removal.

SMILES strings stand for the structures.

Data set [1] addresses T1, UDP-glucuronosyltransferase 2B17 (Homo sapiens, UniProt O75795).
T1 sequence (O75795 whole entry): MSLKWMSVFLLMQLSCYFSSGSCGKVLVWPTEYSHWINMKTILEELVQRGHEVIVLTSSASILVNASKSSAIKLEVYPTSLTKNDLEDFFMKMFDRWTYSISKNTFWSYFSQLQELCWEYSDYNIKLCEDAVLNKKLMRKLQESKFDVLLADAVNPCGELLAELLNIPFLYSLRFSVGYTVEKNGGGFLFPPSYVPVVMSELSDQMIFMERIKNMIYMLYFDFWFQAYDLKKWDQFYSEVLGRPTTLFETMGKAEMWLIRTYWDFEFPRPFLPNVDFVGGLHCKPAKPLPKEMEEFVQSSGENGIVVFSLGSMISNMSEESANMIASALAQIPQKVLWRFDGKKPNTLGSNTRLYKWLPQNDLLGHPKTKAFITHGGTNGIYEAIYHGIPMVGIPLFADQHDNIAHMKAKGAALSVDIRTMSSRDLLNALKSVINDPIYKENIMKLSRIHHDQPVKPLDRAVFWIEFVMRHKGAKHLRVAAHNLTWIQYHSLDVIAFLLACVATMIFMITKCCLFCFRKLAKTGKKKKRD
In words: Inhibition of UGT2B17 (unknown origin). It is filed as ADME.

A short description of data set [2]: In vivo inhibition of GalCerde novo synthesis in po dosed PN14 to PN21 days C57BL/6 mouse brain assessed as reduction in [13C] galactose incorporation into GalCer administered twice for 2 days and single dose at day 3 treated 1 hr prior to intraperitoneal injection of [13C] galactose measured after 5 hrs of last dose. Type of data set: functional. The settings on record: C57BL/6, 72 h, time 3 day.

Data set [3] addresses T2, 2-hydroxyacylsphingosine 1-beta-galactosyltransferase (Mus musculus, UniProt Q64676).
T2 sequence (Q64676 whole entry): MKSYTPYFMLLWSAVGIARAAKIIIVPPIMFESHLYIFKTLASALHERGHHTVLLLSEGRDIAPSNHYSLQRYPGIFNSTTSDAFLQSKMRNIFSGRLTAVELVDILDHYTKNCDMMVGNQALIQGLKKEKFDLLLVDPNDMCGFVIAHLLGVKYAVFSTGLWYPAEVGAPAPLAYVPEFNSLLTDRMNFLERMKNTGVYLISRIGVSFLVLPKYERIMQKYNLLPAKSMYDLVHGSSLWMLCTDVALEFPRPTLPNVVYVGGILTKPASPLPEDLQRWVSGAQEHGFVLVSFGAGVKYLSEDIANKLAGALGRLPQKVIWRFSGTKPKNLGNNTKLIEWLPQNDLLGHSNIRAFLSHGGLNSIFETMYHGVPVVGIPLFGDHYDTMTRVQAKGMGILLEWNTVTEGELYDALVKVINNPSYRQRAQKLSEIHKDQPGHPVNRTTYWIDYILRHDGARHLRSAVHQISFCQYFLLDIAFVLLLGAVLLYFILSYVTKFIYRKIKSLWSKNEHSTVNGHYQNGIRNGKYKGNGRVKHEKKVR
In words: Inhibition of mouse UGT8 assessed as redcution in GalCer accumulation.

Data set [4] in a line: Cmax in Sprague-Dawley rat at 3 mg/kg, po. It is filed as ADME, organism-based. On the set-up: route oral, dose 3 mg/kg. Particulars: in vivo.
Data set [5] in a line: Tmax in C57BL/6 mouse at 3 mg/kg, po. Type of data set: ADME, organism-based. The settings on record: in vivo.
Data set [6] in a line: Half life in C57BL/6 mouse at 1 mg/kg, iv. The settings on record: in vivo. It is filed as ADME, organism-based.
Data set [7] is described as follows: Thermodynamic solubility of the compound […] at pH 7.4. Type of data set: physicochemical. Particulars: read-out: Therm_solubility.
Data set [8] is described as follows: In vivo inhibition of GalCer de novo synthesis in adult C57BL/6 mouse kidney assessed as reduction in [13C] galactose incorporation into GalCer at 10 mg/kg, po via gavage treated with compound for 1 hr prior to intraperitoneal injection of [13C] galactose measured after 5 hrs of compound administration relative to control. It is filed as functional.
Data set [9] addresses T3, UDP-glucuronosyltransferase 1A6 (Homo sapiens, UniProt P19224).
T3 sequence (P19224 whole entry): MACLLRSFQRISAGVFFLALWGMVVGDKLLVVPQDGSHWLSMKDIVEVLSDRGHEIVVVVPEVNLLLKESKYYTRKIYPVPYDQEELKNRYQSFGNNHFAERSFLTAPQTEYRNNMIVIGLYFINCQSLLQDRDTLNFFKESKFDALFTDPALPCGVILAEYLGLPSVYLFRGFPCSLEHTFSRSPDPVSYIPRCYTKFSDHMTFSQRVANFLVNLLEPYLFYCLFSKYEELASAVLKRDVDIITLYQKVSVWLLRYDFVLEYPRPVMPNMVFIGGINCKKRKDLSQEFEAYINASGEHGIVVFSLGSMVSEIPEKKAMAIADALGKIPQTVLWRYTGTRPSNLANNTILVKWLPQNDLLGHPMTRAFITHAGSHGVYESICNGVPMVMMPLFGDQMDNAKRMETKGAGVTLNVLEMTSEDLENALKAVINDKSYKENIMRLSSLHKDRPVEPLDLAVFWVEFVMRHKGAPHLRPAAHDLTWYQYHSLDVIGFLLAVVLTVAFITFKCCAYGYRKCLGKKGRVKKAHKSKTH
Put plainly: Inhibition of UGT1A6 (unknown origin). Type of data set: ADME.

Data set [10] is described as follows: Protein binding in C57BL/6 mouse plasma. Type of data set: ADME, cell-free. Particulars: read-out: PPB.
Data set [11] in a line: Distribution coefficient, log D of the compound. Type of data set: physicochemical. Particulars: octanol/water.
Data set [12] is described as follows: In vivo inhibition of SFT de novo synthesis in adult C57BL/6 mouse kidney assessed as reduction in [13C] galactose incorporation into SFT at 1 mg/kg, po via gavage treated with compound for 1 hr prior to intraperitoneal injection of [13C] galactose measured after 5 hrs of compound administration relative to control. Type of data set: functional.
Data set [13] is described as follows: Half life in Beagle dog at 1 mg/kg, iv. Type of data set: ADME, organism-based, Canis lupus familiaris. Particulars: in vivo.
Data set [14] is described as follows: Ratio of drug concentration in brain to plasma in C57BL/6 mouse measured at 1 hr. It is filed as ADME, organism-based. Particulars: read-out: BPR.
Data set [15] is described as follows: Intrinsic clearance in human liver microsomes. Type of data set: ADME, Microsome. The settings on record: read-out: CLH.
The nature of data set [16]: Cmax in C57BL/6 mouse at 3 mg/kg, po. Type of data set: ADME, organism-based. The arrangement: route oral, dose 3 mg/kg. The settings on record: in vivo.
Data set [17] in a line: Clearance in C57BL/6 mouse at 1 mg/kg, iv. It is filed as ADME, organism-based. The settings on record: in vivo.
The nature of data set [18]: In vivo inhibition of GalCer de novo synthesis in PN14 to PN21 days C57BL/6 mouse brain assessed as reduction in [13C] galactose incorporation into GalCer at 3 mg/kg, po bid for 2 days and single dose at day 3 treated 1 hr prior to intraperitoneal injection of [13C] galactose measured after 5 hrs of last dose relative to control. It is filed as functional. Particulars: C57BL/6, 72 h, time 3 day.

`CNC(=O)c1csc2c(C(F)(F)F)cc(N3CCC(OC(=O)N[C@@H](C)COC(F)(F)F)CC3)nc12`: the IC50 was more than 10 µM in [1], 0.0002 µM in [3] and more than 10 µM in [9]. In addition, the ED50 in data set [2] is less than 3 mg/kg. Also, the Cmax in data set [4] amounted to 405 ng/mL; in [16], 306 ng/mL. Moreover, in data set [5], the Tmax is 0.5 h. Besides, the half-life in data set [6] was 1.13 h; in data set [13], 13.6 h. Also, the solubility thermodynamic in data set [7] was less than 0.5 µM. The inhibition in vivo at 10 mg/kg in [8] turned out to be 85%. For the same compound, the fraction unbound in data set [10] was less than 0.01. The logD in data set [11] turned out to be 5.09. Further, the inhibition in vivo at 1 mg/kg in [12] worked out at 50%. The Kp at 1 h in data set [14] amounted to 0.46. Further, the microsomal CLint in data set [15] was 73 µL/min/mg. Further, the clearance in data set [17] turned out to be 24.7 mL/min/kg. Also, the inhibition in vivo at 3 mg/kg in [18] came out at 90%.
